Drawing on PubChem BioAssay AID250 (DTP/NCI, 2004), this text covers T/C for six molecules.

For this assay, the system named is BDF1 mice, L1210 leukemia sc, survival T/C. In words: NCI In Vivo Anticancer Drug Screen. Data for tumor model L1210 Leukemia (subcutaneous) in B6D2F1 (BDF1) mice. To be noted: endpoint: median survival time, higher = longer survival. The gist of the method: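 Tumors were transplanted into mice, the animals were treated with compound, survival or tumor size was then measured, and treated values were divided by vehicle-control values.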

Where [1] appears, read: dose: 65.0 mg/kg/injection, schedule: Q01DX Z (sc), vehicle: carboxymethylcellulose (CMC).
Setting [2] is: dose: 108.0 mg/kg/injection, schedule: Q01DX Z (sc), vehicle: carboxymethylcellulose (CMC).
Where [3] appears, read: dose: 180.0 mg/kg/injection, schedule: Q01DX Z (sc), vehicle: carboxymethylcellulose (CMC).

Values joined by “and” are separate entries in the source; they are usually repeats but may differ in a detail not shown here. Identical values can stand only once. Inconclusive results and toxic doses are left out.

Regarding `NC(=S)N/N=C/c1ccc(O)cn1`, the T/C was 120 % of control (dose: 8.4 mg/kg/injection, schedule: Q03HX024 (sc), vehicle: none); 155 % of control (dose: 10.0 mg/kg/injection, schedule: Q03HX024 (sc), vehicle: other); 183 % of control (dose: 20.0 mg/kg/injection, schedule: Q03HX024 (ip), vehicle: other); 177 % of control (dose: 20.0 mg/kg/injection, schedule: Q03HX024 (sc), vehicle: other); 175 % of control (dose: 23.0 mg/kg/injection, schedule: Q03HX024 (sc), vehicle: none); 238 % of control (dose: 30.0 mg/kg/injection, schedule: Q03HX024 (ip), vehicle: other). The T/C is, setting by setting: (dose: 30.0 mg/kg/injection, schedule: Q03HX024 (sc), vehicle: other) 266 % of control; (dose: 39.0 mg/kg/injection, schedule: Q03HX024 (sc), vehicle: none) 165 % of control; (dose: 50.0 mg/kg/injection, schedule: Q04DX003 (sc), vehicle: other) 107 % of control and 110 % of control; (dose: 60.0 mg/kg/injection, schedule: Q03HX024 (ip), vehicle: other) 100 % of control; (dose: 65.0 mg/kg/injection, schedule: Q01DX009 (sc), vehicle: other) 158 % of control and 166 % of control; (dose: 65.0 mg/kg/injection, schedule: Q01DX Z (sc), vehicle: saline) 104 % of control. Further, the T/C runs as follows: (dose: 65.0 mg/kg/injection, schedule: Q08DX009 (sc), vehicle: none) 150 % of control; (dose: 100.0 mg/kg/injection, schedule: Q01DX009 (ip), vehicle: other) 150 % of control; (dose: 100.0 mg/kg/injection, schedule: Q01DX009 (sc), vehicle: other) 155 % of control; (dose: 100.0 mg/kg/injection, schedule: Q04DX003 (ip), vehicle: other) 111 % of control; (dose: 100.0 mg/kg/injection, schedule: Q04DX003 (sc), vehicle: other) 107 % of control and 110 % of control and 111 % of control; (dose: 108.0 mg/kg/injection, schedule: Q01DX009 (sc), vehicle: other) 163 % of control and 166 % of control. The T/C by setting is: (dose: 108.0 mg/kg/injection, schedule: Q01DX Z (sc), vehicle: saline) 104 % of control; (dose: 108.0 mg/kg/injection, schedule: Q04DX003 (sc), vehicle: none) 100 % of control; (dose: 108.0 mg/kg/injection, schedule: Q04DX003 (sc), vehicle: other) 103 % of control and 105 % of control; (dose: 108.0 mg/kg/injection, schedule: Q08DX009 (sc), vehicle: none) 155 % of control; (dose: 180.0 mg/kg/injection, schedule: Q01DX009 (sc), vehicle: other) 170 % of control and 177 % of control; (dose: 180.0 mg/kg/injection, schedule: Q01DX Z (sc), vehicle: saline) 104 % of control. The T/C is 99 % of control (dose: 180.0 mg/kg/injection, schedule: Q02DX005 (sc), vehicle: other); 100 % of control (dose: 180.0 mg/kg/injection, schedule: Q04DX003 (sc), vehicle: none); 104 % of control and 105 % of control (dose: 180.0 mg/kg/injection, schedule: Q04DX003 (sc), vehicle: other); 150 % of control (dose: 180.0 mg/kg/injection, schedule: Q08DX009 (sc), vehicle: none); 122 % of control (dose: 180.0 mg/kg/injection, schedule: Q11HX006 (sc), vehicle: water); 150 % of control (dose: 200.0 mg/kg/injection, schedule: Q01DX009 (ip), vehicle: other). Also, the T/C by setting is: (dose: 200.0 mg/kg/injection, schedule: Q01DX009 (sc), vehicle: other) 150 % of control; (dose: 200.0 mg/kg/injection, schedule: Q04DX003 (ip), vehicle: other) 111 % of control; (dose: 200.0 mg/kg/injection, schedule: Q04DX003 (sc), vehicle: other) 98 % of control and 100 % of control and 116 % of control; (dose: 300.0 mg/kg/injection, schedule: Q01DX009 (sc), vehicle: other) 150 % of control; (dose: 300.0 mg/kg/injection, schedule: Q01DX Z (sc), vehicle: saline) 108 % of control; (dose: 300.0 mg/kg/injection, schedule: Q02DX005 (sc), vehicle: other) 108 % of control. Moreover, the T/C was 100 % of control (dose: 300.0 mg/kg/injection, schedule: Q04DX003 (sc), vehicle: none); 105 % of control and 111 % of control (dose: 300.0 mg/kg/injection, schedule: Q04DX003 (sc), vehicle: other); 111 % of control (dose: 300.0 mg/kg/injection, schedule: Q04DX003 (sc), vehicle: water); 160 % of control (dose: 300.0 mg/kg/injection, schedule: Q08DX009 (sc), vehicle: none); 122 % of control (dose: 300.0 mg/kg/injection, schedule: Q11HX006 (sc), vehicle: water); 88 % of control (dose: 400.0 mg/kg/injection, schedule: Q01DX009 (sc), vehicle: other). For the same molecule, the T/C runs as follows: (dose: 400.0 mg/kg/injection, schedule: Q04DX003 (ip), vehicle: other) 111 % of control; (dose: 400.0 mg/kg/injection, schedule: Q04DX003 (sc), vehicle: other) 99 % of control and 100 % of control and 116 % of control; (dose: 500.0 mg/kg/injection, schedule: Q02DX005 (sc), vehicle: other) 100 % of control and 117 % of control; (dose: 500.0 mg/kg/injection, schedule: Q04DX003 (sc), vehicle: none) 100 % of control; (dose: 500.0 mg/kg/injection, schedule: Q04DX003 (sc), vehicle: other) 106 % of control and 111 % of control; (dose: 833.0 mg/kg/injection, schedule: Q02DX005 (sc), vehicle: other) 105 % of control and 60 % of control. Besides, the T/C (dose: 1388.0 mg/kg/injection, schedule: Q02DX005 (sc), vehicle: other) is 120 % of control and 60 % of control.

`C[n+]1ccc(Nc2ccc(NC(=O)c3ccc(Nc4cc[n+](C)c5ccc(N)cc45)cc3)cc2)cc1`: the T/C reads like this: (dose: 0.5 mg/kg/injection, schedule: Q01DX009 (ip), vehicle: Klucel (hydroxypropylcellulose) (HPC)) 100 % of control; (dose: 1.0 mg/kg/injection, schedule: Q01DX009 (ip), vehicle: Klucel (hydroxypropylcellulose) (HPC)) 110 % of control; (dose: 2.0 mg/kg/injection, schedule: Q01DX009 (ip), vehicle: Klucel (hydroxypropylcellulose) (HPC)) 182 % of control; (dose: 4.0 mg/kg/injection, schedule: Q01DX009 (ip), vehicle: Klucel (hydroxypropylcellulose) (HPC)) 250 % of control; (dose: 8.0 mg/kg/injection, schedule: Q01DX009 (ip), vehicle: Klucel (hydroxypropylcellulose) (HPC)) 291 % of control.

Consider `CCOC(C)C(=O)C=O` (stereo not given), for which the T/C runs as follows: (dose: 23.0 mg/kg/injection, schedule: Q01DX Z (sc), vehicle: water) 100 % of control; (dose: 39.0 mg/kg/injection, schedule: Q01DX Z (sc), vehicle: water) 100 % of control; (dose: 65.0 mg/kg/injection, schedule: Q01DX Z (sc), vehicle: water) 100 % of control; (dose: 108.0 mg/kg/injection, schedule: Q01DX Z (sc), vehicle: water) 100 % of control; (dose: 180.0 mg/kg/injection, schedule: Q01DX Z (sc), vehicle: water) 100 % of control; (dose: 300.0 mg/kg/injection, schedule: Q01DX Z (sc), vehicle: water) 100 % of control. Also, the T/C (dose: 500.0 mg/kg/injection, schedule: Q01DX Z (sc), vehicle: water) was 105 % of control.

Take `Cc1c(O)ccc(=O)n1O`: the T/C under setting [1] was 100 % of control; the T/C under setting [2] is 100 % of control; the T/C under setting [3] is 100 % of control; the T/C (dose: 300.0 mg/kg/injection, schedule: Q01DX Z (sc), vehicle: carboxymethylcellulose (CMC)) is 100 % of control; the T/C (dose: 500.0 mg/kg/injection, schedule: Q01DX Z (sc), vehicle: carboxymethylcellulose (CMC)) was 100 % of control.

On to `CN(C)N=Nc1ccc(CCCC(=O)NN)cc1`, for which the T/C (dose: 23.0 mg/kg/injection, schedule: Q01DX Z (sc), vehicle: carboxymethylcellulose (CMC)) was 109 % of control; the T/C (dose: 39.0 mg/kg/injection, schedule: Q01DX Z (sc), vehicle: carboxymethylcellulose (CMC)) is 118 % of control; the T/C under setting [1] was 109 % of control; the T/C under setting [2] was 109 % of control; the T/C under setting [3] was 113 % of control.

Take `CN(Cc1cnc2nc(N)nc(N)c2n1)c1c(Cl)cc(C(=O)NC(CCC(=O)O)C(=O)O)cc1Cl` (stereo not given): the T/C by setting is: (dose: 14.0 mg/kg/injection, schedule: Q01DX Z (sc), vehicle: sodium bicarbonate) 245 % of control; (dose: 23.0 mg/kg/injection, schedule: Q01DX Z (sc), vehicle: sodium bicarbonate) 259 % of control; (dose: 39.0 mg/kg/injection, schedule: Q01DX Z (sc), vehicle: sodium bicarbonate) 427 % of control; (dose: 100.0 mg/kg/injection, schedule: Q01DX Z (sc), vehicle: other) 154 % of control.
